Test results taken from PMC11312998, “Molecular Pro-Apoptotic Activities of Flavanone Derivatives in Cyclodextrin Complexes: New Implications for Anticancer Therapy” (International Journal of Molecular Sciences, 2024).
Converted amounts (≈) assume the structure as drawn.

Assays:
[1] = Water solubility by UV–Vis spectrophotometry (phase solubility with cyclodextrins); format: physicochemical; conditions: 25 °C, thermodynamic from solid, 298.15 K, without cyclodextrin, read-out: Solubility in H2O
Description: Spectrophotometric measurements were performed using a SPECORD 50 single-beam UV–Vis spectrophotometer (Analyst Jena, Thuringia, Germany). The calibration lines of the compounds tested were determined for the concentration range of 3.0 × 10^−6 M to 1 × 10^−4 M (Figure 21). The molar extinction coefficients for 3, 3a, and 5 were determined experimentally in an aqueous ethanol solution; the relevant maximum wavelengths are presented in Table 9. The influence of α-cyclodextrins, β-cyclodextrins and HP-β-cyclodextrins on the solubility of the tested ligands in water was evaluated in three measurement series. Briefly, excess ligand was introduced into closed Eppendorff tubes containing α-CD, β-CD or HP-β-CD solutions, at concentrations ranging from 1 to 90 mM for α-CD and HP-β-CD and from 1 to 15 mM for β-CD. The test tubes were stored for 10 days at a temperature of 298.15 K until equilibrium was achieved. After this time, the solutions were centrifuged using a Microcentrifuge MPW-55 at 13,000 rpm for five minutes. For testing, a clear solution was taken from above the sediment and diluted appropriately so that the spectrum was within the operating range of the spectrophotometer.

[2] = system: intrinsic coagulation pathway; assay: Activated partial thromboplastin time (APTT); format: biochemical, human; conditions: 1–100 µmol/L; values did not exceed the reference range
Description: (§1) Basic coagulation parameters were determined using Bio-Ksel reagents (Grudziądz, Poland): APTT reagent, calcium chloride, Bio-Ksel PT plus reagent (tromboplastin and solvent) and thrombin (3.0 UNIH/mL) for TT experiments. The methods were calibrated and the coefficient of variation (PT, APTT, TT experiments) was calculated using a calibrator (Bio-Ksel, Grudziadz, Poland), normal plasma (Bio-Ksel, Grudziądz, Poland) and water for injection (Polpharma, Gdańsk, Poland).
The experiments were conducted in multiplicates, and their results are presented as mean ± standard deviation (SD). Control samples consisting of distilled water and methanol were tested. All methods were validated using Bio-Ksel normal plasma, which was dissolved in water for injection (Polpharma, Gdańsk, Poland). The reference values for each test are as follows: PT: 9.7–13.8 s; INR: 0.9–1.2; APTT: 28.2–42.3 s; TT: 11.0–16.5 s for 3.0 UNIH/mL of thrombin.

[3] = system: extrinsic coagulation pathway; assay: Prothrombin time (PT); format: biochemical, human; conditions: 1–100 µmol/L
Description: as §1
Control samples consisting of distilled water and methanol were tested. All methods were validated using Bio-Ksel normal plasma, which was dissolved in water for injection (Polpharma, Gdańsk, Poland). The reference values for each test are as follows: PT: 9.7–13.8 s; INR: 0.9–1.2; APTT: 28.2–42.3 s; TT: 11.0–16.5 s for 3.0 UNIH/mL of thrombin.

RBCs = assay: Red blood cells lysis assay; format: cell-based, human; conditions: 24 h
Description: The experiments on human blood were performed in accordance with Polish national guidelines, and the study protocols were approved by the Bioethics Committee of the Medical University of Lodz, Poland: approval no (RNN/104/20/KE). The blood samples were obtained from healthy donors at the Blood Donation Centre in Lodz. The procedure for […] for erythrotoxicity studies is given in a previous paper. The influence of the synthesized compounds, together with a reference compound on RBC membrane integrity, was performed by lysis assay, described elsewhere. Briefly, 2% RBC suspension in 0.9% NaCl was incubated at 37 °C for 24 h with the tested compounds at concentrations of 100 µmol/L, 50 µmol/L, 25 µmol/L, 10 µmol/L and 1 µmol/L. The samples were centrifuged at 3000 rpm for 10 min, and the absorbance of the supernatant was measured at 550 nm. […] A sample containing saline solution represented the spontaneous hemolysis of RBCs (control). The experiments were conducted using at least three different biological materials (n = 3). […] Additionally, erythrocyte morphology was evaluated using a phase contrast Opta-Tech inverted microscope at 400× magnification.

[4] = Isothermal titration calorimetry (ITC) of inclusion complex formation; format: physicochemical; conditions: DMSO, 25 °C
Description: Measurements were carried out using a MicroCal VP-ITC100 microcalorimeter equipped with a 1400 μL measurement cell. All titrations were carried out under isothermal conditions at 25 degrees C in DMSO solution, which was used as a solvent. The mixing speed during the measurements was 351 rpm. The 0.2 mM solution of the ligand (3, 3a and 5) located in the measurement cell was titrated with the cyclodextrin solution located in the syringe. Each measurement consisted of 50 injections of cyclodextrin with a volume of 5 uL and a concentration of 5 mM. The interval between individual injections was 300 s. The effect of direct interaction of the ligand with CD was calculated by subtracting the thermal effects of diluting 5 mM cyclodextrin in a pure solvent. The dilution effect of the 0.2 mM ligand solution was negligible. The results obtained were processed in the MicroCall Origin 7 software. Using a single active site model (ITC Tutorial Guide), the stability constant K of the resulting complex, its stoichiometry n and thermodynamic parameters that describe the ongoing process were determined, viz., enthalpy (ΔH), Gibbs free energy (ΔG) and entropy (ΔS).

[5] = concentration range of 1–25 µmol/L
[6] = concentrations of 50 µmol/L and 100 µmol/L

COc1cccc(/C=C2/C(=O)c3ccccc3OC2c2ccccc2)c1 (stereo not drawn) [Compound 3]
solubility at 10 days [1]: 1.29 µM (≈ 0.442 µg/mL)
APTT time (in words) [2]: mild, statistically significant prolongation of APTT time
prothrombin time (PT), difference compared to controls (in words) [3]: No statistically significant differences
impact on % hemolysis (in words) (RBCs; [5]): did not show a statistically significant impact
impact on % hemolysis (in words) (RBCs; [6]): statistically significant increase in % hemolysis
K (formation constant) ([4]; HP-β-cyclodextrin): 6.88 × 10^3 ± 430
n (stoichiometry) ([4]; HP-β-cyclodextrin): 1.03 ± 0.10
ΔG ([4]; HP-β-cyclodextrin): −21,902.2 J mol^−1
ΔH ([4]; HP-β-cyclodextrin): -0.235 ± 0.0191 kcal/mol
ΔS ([4]; HP-β-cyclodextrin): 70.2 J mol^−1K^−1
K (formation constant) ([4]; α-cyclodextrin): 2.30 × 10^3 ± 180
n (stoichiometry) ([4]; α-cyclodextrin): 0.90 ± 0.13
ΔG ([4]; α-cyclodextrin): −19,188.6 J mol^−1
ΔH ([4]; α-cyclodextrin): -0.092 ± 0.011 kcal/mol
ΔS ([4]; α-cyclodextrin): 63.1 J mol^−1K^−1
K (formation constant) ([4]; β-cyclodextrin): 3.68 × 10^3 ± 230
n (stoichiometry) ([4]; β-cyclodextrin): 0.99 ± 0.11
ΔG ([4]; β-cyclodextrin): −20,353.7 J mol^−1
ΔH ([4]; β-cyclodextrin): -0.2476 ± 0.021 kcal/mol
ΔS ([4]; β-cyclodextrin): 64.8 J mol^−1K^−1

O=C1/C(=C/c2ccccc2)C(c2ccccc2)Oc2ccccc21 (stereo not drawn) [Compound 5]
solubility at 10 days [1]: 1.5 µM (≈ 0.469 µg/mL)
APTT time (in words) [2]: mild, statistically significant prolongation of APTT time
prothrombin time (PT), difference compared to controls (in words) [3]: No statistically significant differences
impact on % hemolysis (in words) (RBCs; [5]): did not show a statistically significant impact
impact on % hemolysis (in words) (RBCs; [6]): statistically significant increase in % hemolysis
K (formation constant) ([4]; HP-β-cyclodextrin): 5.12 × 10^3 ± 410
n (stoichiometry) ([4]; HP-β-cyclodextrin): 0.93 ± 0.10
ΔG ([4]; HP-β-cyclodextrin): −21,172.4 J mol^−1
ΔH ([4]; HP-β-cyclodextrin): -0.119 ± 0.0151 kcal/mol
ΔS ([4]; HP-β-cyclodextrin): 69.3 J mol^−1K^−1
K (formation constant) ([4]; α-cyclodextrin): 1.39 × 10^3 ± 120
n (stoichiometry) ([4]; α-cyclodextrin): 0.83 ± 0.17
ΔG ([4]; α-cyclodextrin): −17,940.2 J mol^−1
ΔH ([4]; α-cyclodextrin): -0.049 ± 0.00741 kcal/mol
ΔS ([4]; α-cyclodextrin): 59.5 J mol^−1K^−1
K (formation constant) ([4]; β-cyclodextrin): 2.32 × 10^3 ± 220
n (stoichiometry) ([4]; β-cyclodextrin): 0.93 ± 0.11
ΔH ([4]; β-cyclodextrin): -0.0411 ± 0.012 kcal/mol
ΔS ([4]; β-cyclodextrin): 62.5 J mol^−1K^−1
